Laboratory results as given in paper PMC9653339, “Revisiting the anticancer properties of phosphane(9-ribosylpurine-6-thiolato)gold(I) complexes and their 9H-purine precursors” (Journal of Biological Inorganic Chemistry, 2022).

Experiments:
[1] = system: HCT-116^p53−/− (p53 knockout mutant) colon carcinoma cells; set-up: method as in Bär et al. [33]; settings: MTT, value marked * ref Bär et al. [33]; cited from earlier work
518A2 melanoma cells [2] = test: ROS assay (NBT); assay type: cell-based, human; settings: 518A2 cells, 1 µM and 5 µM, 24 h
Procedure: To determine cellular ROS levels, 2,2′-bis(4-nitrophenyl)-5,5′-diphenyl-3,3′-(3,3′-dimethoxy-4,4′-diphenylene) di-tetrazolium chloride (NBT) was used. The assay is based on the reduction of a yellow NBT tetrazolium salt to a blue formazan dye. 518A2 melanoma cells were seeded in 96-well flat bottom microtiter plates (Sarstedt) with 100 µL per well and a cell density of 0.1 × 10^6 cells per mL. The cells were allowed to grow overnight, followed by substance treatment with 11.1 µL of tenfold concentrated test compound dilutions and further incubated for 24 h. Then plates were centrifuged, the medium was discarded and 50 µL per well of NBT solution (0.1% in PBS) was added. The plates were further incubated for 4 h, centrifuged again and the medium was discarded. After that, 50 µL of 2M KOH solution and 65 µL DMSO had been added per well, incubation was continued for 30 min. The absorbances at 630 nm und 405 nm were measured, using a plate reader (Tecan). The background absorbance (405 nm) was subtracted from the formazan signal (630 nm). The resulting absorbance is directly proportional to the reactive oxygen species level. The control value was normalized to 100% ROS level, and accordingly, the viability of cells treated with test compounds was calculated. Means and SD were calculated from at least four independent experiments.

[3] = system: HeLa cervix carcinoma cells; set-up: method as in Bär et al. [33]; settings: MTT, value marked * ref Bär et al. [33]; cited from earlier work
518A2 melanoma cells [4] = system: 518A2 melanoma cells; set-up: method as in Bär et al. [33]; settings: MTT, value marked * ref Bär et al. [33]; cited from earlier work
[5] = system: human adult dermal fibroblasts HDFa; set-up: method as in Bär et al. [33]; settings: MTT, value marked * ref Bär et al. [33]; cited from earlier work
[6] = system: HCT-116^wt colon carcinoma cells; set-up: method as in Bär et al. [33]; settings: MTT, value marked * ref Bär et al. [33]; cited from earlier work
[7] = system: circular plasmid pBR322 DNA; test: Electrophoretic mobility shift assay (EMSA); assay type: binding
Procedure: To distinguish whether the DNA interaction is of an electrostatic or covalent nature, a second DNA interaction assay was conducted. 1.5 µg of circular plasmid pBR322 DNA were incubated in TE buffer (10 mM Tris–Cl, 1 mM EDTA, pH 8.0) with different concentrations of test compounds (final concentrations; 5 µM, 10 µM, 25 µM and 50 µM), whereas a corresponding volume of DMSO was added to the control (0 µM) to a final volume of 20 µL of each sample. Samples ware incubated for 16 h at 37 °C and subjected to 1% agarose gel electrophoresis in 0.5 × TBE buffer (45 mM Tris–Cl, 45 mM boric acid, 1.25 mM EDTA, pH 8.0) for 4 h at 66 V. Afterward, the agarose gel was stained for 20 min with EtdBr (10 µg/mL in 0.5 TBE buffer) solution and the result documented using UV excitation.

linear salmon sperm DNA = test: Ethidium bromide saturation assay; assay type: binding
Procedure: The interaction of the complexes with linear DNA was assessed using the EtdBr assay. Ethidium bromide intercalates into DNA enhancing its fluorescence, while intercalation is hindered by alterations of the DNA structure e.g., by small molecules interfering with DNA [17]. In wells of a 96-well black flat bottom microtiter plates a solution of 1 µg linear salmon sperm DNA (ThermoFisher) in TE buffer (10 mM Tris–Cl, 1 mM EDTA, pH 8.0) was treated with concentration series (final concentrations; 25 µM, 50 µM, 75 µM and 100 µM) of the compounds, a corresponding amount of DMSO was used as a control (0 µM). After an incubation period of 2 h at 37 °C, 100 µL per well of ethidium bromide solution (10 µg/mL in TE buffer) was added and the plate was incubated for 5 min in the dark. Background samples were prepared analogously but without DNA addition. EtdBr–DNA adduct fluorescence was monitored at an excitation wavelength of 535 nm and an emission wavelength of 595 nm. After background subtraction, changes in fluorescence intensity were calculated in relation to control (set to 100%). Means and SD were calculated from at least three independent experiments.

518A2 melanoma cells [8] = test: Comet assay; assay type: cell-based, human; settings: 518A2 cells, 3.3 µM and 33 µM
Procedure: 518A2 melanoma cells were seeded at a concentration of 0.03 × 10^6 cells/mL and a volume of 2 mL seeded in 6-well plates and incubated overnight (37 °C, 95% humidity, 5% CO2). In addition, slides were coated with 1.5% agarose and allowed to harden before being stored in a moist place until the next day. On the second day, a 100-fold substance pre-dilution was added to the cells followed by a further incubation of 3–5 h. The selected concentration range was based on Mendonça et al.. Subsequently, the cells were harvested with trypsin and the cell number was adjusted to 0.02 × 10^6 cells/mL. 0.5% agarose solution was prepared and tempered to a maximum of 50 °C. After mixing 0.4 mL of cell suspension with 1.2 mL of tempered agarose, 200 µL was pipetted onto each of the previously coated slides. After these had hardened, a one-hour incubation followed at 4 °C in lysis buffer. The samples were then electrophoresed at 11 V for 20 min and then incubated for 15 min in neutralization buffer. Finally, the DNA was stained with 30 µL each of 1% ethidium bromide for 30 min, before the slides were washed with PBS for subsequent documentation under a fluorescent microscope with UV excitation (Zeiss Axiovert 135, Ex/Em 300 nm/605 nm).

[9] = Stability in cell culture medium by UV/Vis spectroscopy; assay type: physicochemical; settings: 0–30 min and 3 days
From the text: In a further corroboration of the complex stability, the similarity of the chalcogens sulfur and selenium was exploited. The selenolato complex 10 was synthesized and examined for its stability under identical conditions. Since ^77Se is a 1/2 spin nucleus with roughly 8% natural abundance, its compounds can be investigated directly. Depending on whether a break in the Se–Au or the Au–PR3 bond would occur, the shift would change by several hundred ppm and serve as unequivocal evidence. […] In addition, we investigated the stability of complexes 1 and 5 as representatives of the series of purines and purine nucleosides, respectively, in cell culture medium by UV/Vis spectroscopy.

| SMILES | IC50 [1] [µM] | Intracellular ROS level (518A2 melanoma cells [2]) | IC50 [3] [µM] | IC50 (518A2 melanoma cells [4]) [µM] | IC50 [5] [µM] | IC50 [6] [µM] | DNA interaction (EMSA) [7] | DNA interaction (ethidium bromide saturation) (linear salmon sperm DNA) | DNA damage (comet assay) (518A2 melanoma cells [8]) | Stability in cell culture medium (UV/Vis) [9] |
| --- | --- | --- | --- | --- | --- | --- | --- | --- | --- | --- |
| CC(=O)OC[C@H]1O[C@@H]([S-])[C@H](OC(C)=O)[C@@H](OC(C)=O)[C@@H]1OC(C)=O.CCP(CC)CC.[Au+] [Auranofin, auranofin] | 5 ± 0.2 | highest ROS levels | 2.6 ± 0.4 | 1.8 ± 0.03 | 14 ± 1 | 11.9 ± 0.4 |  |  |  |  |
| OC[C@H]1O[C@@H](n2cnc3c([S][Au][PH](c4ccccc4)(c4ccccc4)c4ccccc4)ncnc32)[C@H](O)[C@@H]1O [Complex 5, (1,7-Dihydro-6H-purine-9-β-D-ribofuranosyl-6-thiolato) (triphenylphosphane) gold(I)] |  |  |  |  |  |  | failed to reveal any positive effects | failed to reveal any positive effects | led to DNA damage | stable under the test conditions |
